Paper PMC6407917, “Identification of GSK3186899/DDD853651 as a Preclinical Development Candidate for the Treatment of Visceral Leishmaniasis” (Journal of Medicinal Chemistry, 2018)

Legend:
Test in all cases: biochemical
Parameters in all cases: species or system HEK293/K-562/placenta mixed human extract; Kinobeads chemoproteomic competition binding, quantified by TMT LC-MS/MS, dose response up to 20 uM
NEK1 = NEK1 (Homo sapiens, UniProt Q96PY6)
CAMK2D = CAMK2D (Homo sapiens, UniProt Q13557)
FES = FES (Homo sapiens, UniProt P07332)
Sequence of FES (P07332 whole entry): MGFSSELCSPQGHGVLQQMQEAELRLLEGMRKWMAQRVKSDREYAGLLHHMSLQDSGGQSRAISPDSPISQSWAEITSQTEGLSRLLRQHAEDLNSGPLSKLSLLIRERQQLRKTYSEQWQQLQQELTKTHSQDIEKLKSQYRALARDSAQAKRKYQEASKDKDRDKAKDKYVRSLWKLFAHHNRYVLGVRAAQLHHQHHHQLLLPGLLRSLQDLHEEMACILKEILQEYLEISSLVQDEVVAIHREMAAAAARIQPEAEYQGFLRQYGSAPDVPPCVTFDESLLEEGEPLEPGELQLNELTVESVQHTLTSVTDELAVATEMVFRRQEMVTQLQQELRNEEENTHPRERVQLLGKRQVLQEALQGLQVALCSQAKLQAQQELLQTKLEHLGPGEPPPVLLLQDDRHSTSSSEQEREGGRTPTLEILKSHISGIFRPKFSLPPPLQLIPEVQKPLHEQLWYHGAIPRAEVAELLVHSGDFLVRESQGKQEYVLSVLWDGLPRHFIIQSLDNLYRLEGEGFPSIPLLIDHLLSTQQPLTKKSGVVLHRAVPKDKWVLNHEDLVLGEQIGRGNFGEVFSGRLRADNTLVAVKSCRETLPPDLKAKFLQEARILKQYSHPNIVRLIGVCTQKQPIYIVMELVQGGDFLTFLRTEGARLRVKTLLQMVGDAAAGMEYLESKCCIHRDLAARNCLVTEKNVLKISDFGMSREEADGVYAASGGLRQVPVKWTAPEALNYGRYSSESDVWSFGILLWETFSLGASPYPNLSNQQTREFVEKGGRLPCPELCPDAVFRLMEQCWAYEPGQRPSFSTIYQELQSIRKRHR

PRKAA2 = PRKAA2 (Homo sapiens, UniProt P54646)
Sequence of PRKAA2 (P54646 whole entry): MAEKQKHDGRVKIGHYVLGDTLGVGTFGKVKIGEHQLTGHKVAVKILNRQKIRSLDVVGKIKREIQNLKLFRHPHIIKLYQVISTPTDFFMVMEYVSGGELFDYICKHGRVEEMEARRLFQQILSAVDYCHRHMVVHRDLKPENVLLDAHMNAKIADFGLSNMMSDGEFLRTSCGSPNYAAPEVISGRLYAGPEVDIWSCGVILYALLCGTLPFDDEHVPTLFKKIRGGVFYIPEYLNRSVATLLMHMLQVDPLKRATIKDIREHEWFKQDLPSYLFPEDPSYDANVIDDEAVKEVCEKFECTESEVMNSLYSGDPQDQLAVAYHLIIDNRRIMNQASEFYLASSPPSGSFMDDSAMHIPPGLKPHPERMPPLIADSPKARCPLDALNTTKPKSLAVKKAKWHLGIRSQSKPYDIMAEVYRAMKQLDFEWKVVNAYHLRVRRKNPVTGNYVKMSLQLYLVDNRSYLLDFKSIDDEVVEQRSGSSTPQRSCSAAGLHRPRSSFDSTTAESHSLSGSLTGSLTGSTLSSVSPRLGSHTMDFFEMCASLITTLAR

EPHA3 = EPHA3 (Homo sapiens, UniProt P29320)
Sequence of EPHA3 (P29320 whole entry): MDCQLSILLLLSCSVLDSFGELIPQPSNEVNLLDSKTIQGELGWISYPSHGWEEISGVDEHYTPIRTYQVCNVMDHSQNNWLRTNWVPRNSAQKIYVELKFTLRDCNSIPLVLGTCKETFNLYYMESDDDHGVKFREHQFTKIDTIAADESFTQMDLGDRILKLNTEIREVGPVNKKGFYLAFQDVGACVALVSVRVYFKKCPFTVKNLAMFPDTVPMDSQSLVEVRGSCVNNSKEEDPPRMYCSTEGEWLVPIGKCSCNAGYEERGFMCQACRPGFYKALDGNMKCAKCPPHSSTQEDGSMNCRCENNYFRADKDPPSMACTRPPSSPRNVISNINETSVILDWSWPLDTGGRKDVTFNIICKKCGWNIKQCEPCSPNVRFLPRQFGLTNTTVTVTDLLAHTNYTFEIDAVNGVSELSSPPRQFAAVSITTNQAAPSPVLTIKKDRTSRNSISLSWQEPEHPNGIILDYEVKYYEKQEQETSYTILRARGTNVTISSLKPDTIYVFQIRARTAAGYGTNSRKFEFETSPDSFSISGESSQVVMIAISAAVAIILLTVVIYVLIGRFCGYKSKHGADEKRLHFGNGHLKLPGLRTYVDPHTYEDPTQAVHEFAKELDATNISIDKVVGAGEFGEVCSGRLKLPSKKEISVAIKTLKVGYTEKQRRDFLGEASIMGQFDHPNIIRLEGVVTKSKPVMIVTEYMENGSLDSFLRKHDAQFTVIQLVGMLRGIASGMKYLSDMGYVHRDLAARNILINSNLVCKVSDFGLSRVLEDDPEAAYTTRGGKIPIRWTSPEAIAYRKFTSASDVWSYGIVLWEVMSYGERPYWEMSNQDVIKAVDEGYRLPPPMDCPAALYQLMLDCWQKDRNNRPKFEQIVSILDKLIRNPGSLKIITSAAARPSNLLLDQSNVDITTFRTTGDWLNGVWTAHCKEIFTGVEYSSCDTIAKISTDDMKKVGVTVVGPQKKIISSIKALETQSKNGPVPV

PRKAB2 = PRKAB2 (Homo sapiens, UniProt O43741)
Sequence of PRKAB2 (O43741 whole entry): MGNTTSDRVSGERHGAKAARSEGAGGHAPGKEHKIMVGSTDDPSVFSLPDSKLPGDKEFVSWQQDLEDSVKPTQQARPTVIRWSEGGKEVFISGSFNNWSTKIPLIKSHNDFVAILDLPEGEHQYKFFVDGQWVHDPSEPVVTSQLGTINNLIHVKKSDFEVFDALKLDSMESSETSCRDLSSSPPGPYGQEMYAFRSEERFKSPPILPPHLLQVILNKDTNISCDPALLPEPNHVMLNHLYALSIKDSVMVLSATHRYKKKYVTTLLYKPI

Sequence of CAMK2D (Q13557 whole entry): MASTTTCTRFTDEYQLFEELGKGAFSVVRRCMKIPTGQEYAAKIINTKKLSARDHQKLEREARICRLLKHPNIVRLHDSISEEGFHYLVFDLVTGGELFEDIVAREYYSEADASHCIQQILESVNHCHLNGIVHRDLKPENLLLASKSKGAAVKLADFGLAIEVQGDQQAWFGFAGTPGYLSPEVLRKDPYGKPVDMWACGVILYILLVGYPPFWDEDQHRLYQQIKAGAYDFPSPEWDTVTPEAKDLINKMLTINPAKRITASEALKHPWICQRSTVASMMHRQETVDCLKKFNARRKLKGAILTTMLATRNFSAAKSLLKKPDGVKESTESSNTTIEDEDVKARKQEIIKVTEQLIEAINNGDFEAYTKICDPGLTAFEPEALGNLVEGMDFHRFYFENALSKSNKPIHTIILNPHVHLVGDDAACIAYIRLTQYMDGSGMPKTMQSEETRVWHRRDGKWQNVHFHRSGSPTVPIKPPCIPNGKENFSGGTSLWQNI
Sequence of NEK1 (Q96PY6 whole entry): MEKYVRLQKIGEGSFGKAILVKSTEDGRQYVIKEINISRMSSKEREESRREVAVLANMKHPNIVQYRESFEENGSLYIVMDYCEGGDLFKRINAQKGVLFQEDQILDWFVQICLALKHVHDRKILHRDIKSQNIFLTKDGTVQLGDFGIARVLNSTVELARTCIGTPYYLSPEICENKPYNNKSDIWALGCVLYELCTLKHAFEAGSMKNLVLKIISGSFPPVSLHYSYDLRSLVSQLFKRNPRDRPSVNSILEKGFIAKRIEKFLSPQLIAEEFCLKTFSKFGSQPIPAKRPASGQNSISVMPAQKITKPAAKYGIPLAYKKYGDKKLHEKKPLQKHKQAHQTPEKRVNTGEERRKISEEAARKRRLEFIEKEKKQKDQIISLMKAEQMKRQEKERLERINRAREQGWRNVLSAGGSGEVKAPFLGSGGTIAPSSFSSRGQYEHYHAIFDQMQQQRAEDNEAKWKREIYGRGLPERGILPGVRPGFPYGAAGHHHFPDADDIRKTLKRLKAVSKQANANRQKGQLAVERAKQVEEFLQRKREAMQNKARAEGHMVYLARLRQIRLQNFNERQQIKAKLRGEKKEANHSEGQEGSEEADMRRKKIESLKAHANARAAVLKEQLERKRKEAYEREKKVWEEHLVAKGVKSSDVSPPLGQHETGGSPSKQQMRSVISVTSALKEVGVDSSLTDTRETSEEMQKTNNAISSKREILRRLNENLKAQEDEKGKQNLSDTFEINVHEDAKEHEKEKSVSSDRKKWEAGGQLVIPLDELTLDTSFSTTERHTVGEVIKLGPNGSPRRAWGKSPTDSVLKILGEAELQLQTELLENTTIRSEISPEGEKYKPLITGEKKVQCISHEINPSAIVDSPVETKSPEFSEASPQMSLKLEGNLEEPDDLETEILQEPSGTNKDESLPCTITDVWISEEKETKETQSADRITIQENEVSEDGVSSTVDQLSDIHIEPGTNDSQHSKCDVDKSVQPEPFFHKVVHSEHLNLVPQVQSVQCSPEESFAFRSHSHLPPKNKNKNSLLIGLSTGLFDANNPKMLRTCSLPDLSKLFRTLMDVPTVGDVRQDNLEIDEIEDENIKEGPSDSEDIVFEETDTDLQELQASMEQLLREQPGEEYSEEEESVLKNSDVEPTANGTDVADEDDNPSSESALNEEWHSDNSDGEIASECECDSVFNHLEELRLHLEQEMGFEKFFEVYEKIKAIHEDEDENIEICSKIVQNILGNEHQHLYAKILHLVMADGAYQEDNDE

IC50 (NEK1): ≥ 20 µM
IC50 (CAMK2D): ≥ 20 µM
IC50 (FES): ≥ 20 µM
IC50 (PRKAA2): ≥ 20 µM
IC50 (EPHA3): ≥ 20 µM
IC50 (PRKAB2): ≥ 20 µM
SMILES: COc1ccccc1-c1n[nH]c2nc(N[C@H]3CC[C@H](NS(=O)(=O)CCC(F)(F)F)CC3)nc(OC)c12 [compound 31, 3,3,3-Trifluoro-N-(trans-4-((4-methoxy-3-(2-methoxyphenyl)-1H-pyrazolo[3,4-d]pyrimidin-6-yl)amino)cyclohexyl)propane-1-sulfonamide]
